Positions count from the first letter of the chain named. Names and notes keep the numbering of the source.

One data set deals with T1, MMACHC-R161Q (Homo sapiens, UniProt Q9Y4U1, R161Q).
T1 construct: His-tag (N, cleaved yes); made in house; host or cells: E. coli BL21 DE3
T1 sequence (Q9Y4U1 1-282 R161Q): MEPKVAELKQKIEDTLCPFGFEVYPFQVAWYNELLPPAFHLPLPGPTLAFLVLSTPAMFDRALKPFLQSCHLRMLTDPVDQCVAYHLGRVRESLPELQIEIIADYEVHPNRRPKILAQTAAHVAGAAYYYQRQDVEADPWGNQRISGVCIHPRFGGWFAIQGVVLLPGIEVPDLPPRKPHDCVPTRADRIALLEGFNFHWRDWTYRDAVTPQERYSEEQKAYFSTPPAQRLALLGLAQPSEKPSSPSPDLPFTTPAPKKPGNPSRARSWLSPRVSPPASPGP
The experiment in a line: Differential scanning fluorimetry (DSF), stabilization by cobalamins. Format: binding. As to conditions: for ΔTm max: Tm at 50 μM ligand minus Tm at 0 μM ligand; for ΔTm max / AC50: DSF; for AC50: half-maximal effective ligand concentration for stabilization, 3 μM protein, fit of ΔTm vs ligand concentration. The method, then:
(§1) DSF was performed and analyzed as described in Niesen et al., with minor modifications. Purified MMACHC proteins were diluted to 0.1 mg/ml (3 μM) in buffer (10 mM HEPES pH 7.5, 0.5 M NaCl, 5% glycerol) with 1:1000 Sypro Orange (Invitrogen) and run in triplicate. The proteins were heated from 5 to 75 °C with a ramp rate of 1 °C/min in a thermocycler (Bio-rad C1000 Thermocycler, CFX96 Real-time system). All graphs were normalized so that minimum fluorescence was set to 0 and maximum fluorescence set to 1. […] Final graphs and AC50’s were generated using Kadeidagraph 4.0 software (Synergy Software, Reading, PA). AC50’s were determined by fitting the ΔTm vs. ligand concentration curves to the equation ΔTm = ΔTm max[S]/(AC50 + [S]) where ΔTm is the change in melting temperature (Tm[protein + ligand] − Tm[protein]), ΔTm max is the maximal change in Tm at saturating (50 μM) ligand concentration and [S] is the ligand concentration.
(§2) Wild-type (MMACHC-wt) and mutant (MMACHC-R161Q) MMACHC were expressed and purified to >95% purity, with His-tag removed, as judged by SDS–PAGE (Fig. 2A). In order to investigate the thermostability of MMACHC we used DSF, a method that measures protein stability and ligand-induced changes in stability [[20,21]]. DSF uses an environmentally sensitive dye, such as Sypro orange, to monitor protein-unfolding caused by heat denaturation. As the protein unfolds, the dye, which has a higher fluorescence quantum yield in nonpolar environments than in aqueous media, binds to hydrophobic regions of the protein, causing a large increase in fluorescence [[22,23]]. Protein stability is expressed as the melting point of the protein (Tm), that is, the transition midpoint of the fluorescence curve, corresponding to the temperature at which half of the protein molecules are folded and half are unfolded. […] Even lower was the stability of MMACHC-R161Q (Tm = 37.1 ± 0.7 °C) (Fig. 2B). The difference in Tm was small but nonetheless significant (p < 0.01). A second difference between the wild-type and mutant proteins was the shape of the unfolding curves, with the unfolding of the mutant protein showing high cooperativity indicating a two-state unfolding mechanism while the unfolding of the wild-type protein stretched over a larger temperature range and comprised two phases (Fig. 2B; also Fig. 3A at 0 μM OHCbl).

The next data set deals with T2, MMACHC-wt (Homo sapiens, UniProt Q9Y4U1).
T2 construct: His-tag (N, cleaved yes); made in house; host or cells: E. coli BL21 DE3
T2 sequence (Q9Y4U1 1-282): T1 sequence (Q9Y4U1 1-282 R161Q) with Q161R
The description is as above. It is filed as binding. As to conditions: for ΔTm max: Tm at 50 μM ligand minus Tm at 0 μM ligand; for AC50: half-maximal effective ligand concentration for stabilization, 3 μM protein, fit of ΔTm vs ligand concentration. As for the experimental part:
as §1, §2

Data set [1] deals with T3, His-MMACHC-wt (Homo sapiens, UniProt Q9Y4U1).
T3 construct: made in house; host or cells: E. coli BL21 DE3
T3 sequence (Q9Y4U1 1-282): T1 sequence (Q9Y4U1 1-282 R161Q) with Q161R
Details: method as in PMID 18779575. As to conditions: cited from earlier work.

Another data set deals with T4, His-MMACHC-R161Q (Homo sapiens, UniProt Q9Y4U1, R161Q).
T4 construct: made in house; host or cells: E. coli BL21 DE3
T4 sequence (Q9Y4U1 1-282 R161Q): T1 sequence (Q9Y4U1 1-282 R161Q)
The experiment in a line: UV-visible absorption spectra, base-on/base-off binding. As to conditions: 5 μM cobalamin, 50 μM protein, pH 7.0. As for the experimental part:
[…] In order to retain the high amounts of protein necessary for these experiments, the His-tag (wt and R161Q) or GST-tag (wt protein) was left on. Absorption spectrum measurements were carried out using a MOS-250 spectrometer and recorded using Bio-Kine 32 v4.20 software.
(§3) In order to determine whether the R161Q mutation interferes with the ability of MMACHC to support this transition, we examined the UV–visible absorption spectra for the proteins bound to AdoCbl, as an example of an alkylcobalamin, as well as for the proteins bound to CNCbl and OHCbl. Each cobalamin was added at a concentration of […] (Fig. 5). To determine whether the cobalamin was base-on or base-off, in the case of CNCbl both base-on and base-off spectra were determined for the free vitamin, as previously reported [[12,14]]. […] Confirming our earlier data, GST-tagged MMACHC-wt bound CNCbl in the base-off state (Table 2). […] Both MMACHC-wt and MMACHC-R161Q bound AdoCbl in the base-off state (Fig. 5; Table 2). […] Finally, neither MMACHC-wt nor MMACHC-R161Q modified OHCbl binding, which retained the base-on profile regardless of the MMACHC species present (Fig. 5; Table 2).

The target in data set [2] is T3, His-MMACHC-wt. The data set is described as above. As to conditions: 5 μM cobalamin, 50 μM protein, pH 7.0. The method, then:
(§4) To determine base-on or base-off binding, 5 μM of the appropriate cobalamin or cobinamde in buffer (100 mM Tris, pH 7.0), was incubated in the dark with 400 μl total of 50 μM MMACHC protein (wild-type or R161Q), prepared in the same buffer, or alone, for 5 min at room temperature. In order to retain the high amounts of protein necessary for these experiments, the His-tag (wt and R161Q) or GST-tag (wt protein) was left on. Absorption spectrum measurements were carried out using a MOS-250 spectrometer and recorded using Bio-Kine 32 v4.20 software.
as §3

Another data set concerns the target T5, GST-MMACHC-wt (Homo sapiens, UniProt Q9Y4U1).
T5 construct: made in house
T5 sequence (Q9Y4U1 1-282): T1 sequence (Q9Y4U1 1-282 R161Q) with Q161R
The description is as above. As to conditions: 5 μM cobalamin, 50 μM protein, pH 7.0. The method, then:
as §4, §3

A short description of data set [3]: UV-visible absorption spectra of free cobalamin. It is filed as physicochemical. As to conditions: base-on, nm. The method, then:
as §4, §3

Data set [4] can be described thus: DSF thermostability of apo protein. Format: physicochemical. As to conditions: apo form, His-tag removed, no ligand. The method, then:
as §1
Wild-type (MMACHC-wt) and mutant (MMACHC-R161Q) MMACHC were expressed and purified to >95% purity, with His-tag removed, as judged by SDS–PAGE (Fig. 2A). […] As the protein unfolds, the dye, which has a higher fluorescence quantum yield in nonpolar environments than in aqueous media, binds to hydrophobic regions of the protein, causing a large increase in fluorescence [[22,23]]. […]

A short description of data set [5]: Isothermal denaturation (ITD). It is filed as physicochemical. As to conditions: constant 35 °C over 120 min, Sypro orange fluorescence. As for the experimental part: ITD was performed as previously described with minor variations. Samples of both proteins prepared similarly as for DSF (at similar concentrations) were kept at constant temperature of 35 °C while monitoring the fluorescence of Sypro orange at intervals of one minute in a thermocycler (Bio-rad C1000 Thermocycler, CFX96 Real-time system) over 120 min (n = 12 for each protein).
We performed isothermal […] (ITD) to investigate further the difference in stability between the two proteins. ITD has been described as being more sensitive than DSF for detecting small changes in protein stability. ITD measures the unfolding of proteins at a constant temperature, typically chosen as a few degrees below the Tm, using a similar procedure as DSF including the use of Sypro orange as the reporter dye. […] After 120 min the intensity reached approximately half of the amplitude seen for unfolding with DSF (Fig. 2B). […] This difference cannot be explained with the relatively small difference in the Tm. If ITD is performed at a temperature that falls within the range of the unfolding transition a gradual increase in the proportion of unfolded protein molecules, i.e. a constant increase in fluorescence intensity, would still be expected even at temperatures […] the Tm (18).

For the molecule `C/C1=C2/[N-]C([C@H](CC(N)=O)[C@@]2(C)CCC(=O)NCC(C)O)[C@]2(C)N=C(/C(C)=C3N=C(/C=C4N=C1[C@@H](CCC(N)=O)C\4(C)C)[C@@H](CCC(N)=O)[C@]\3(C)CC(N)=O)[C@@H](CCC(N)=O)[C@]2(C)CC(N)=O.[C-]#N.[C-]#N.[Co]` (some centres unmarked) [Cbi, dicyanocobinamide], at MMACHC-R161Q, the ΔTm max turned out to be 6.8 ± 0.2 °C and the AC50 (in general, the concentration giving half of the maximal activity seen) is 9100 ± 1600 nM. Moreover, on MMACHC-wt, the ΔTm max was 9.8 ± 0.2 °C and the AC50 came out at 1300 ± 200 nM.
With `C/C1=C2/[N-][C@H]([C@H](CC(N)=O)[C@@]2(C)CCC(=O)NC[C@H](C)OP(=O)([O-])O[C@H]2[C@@H](O)[C@@H](n3cnc4cc(C)c(C)cc43)O[C@@H]2CO)[C@]2(C)N=C(/C(C)=C3N=C(/C=C4N=C1[C@@H](CCC(N)=O)C\4(C)C)[C@@H](CCC(N)=O)[C@]\3(C)CC(N)=O)[C@@H](CCC(N)=O)[C@]2(C)CC(N)=O.[CH3-].[Co+3]` [MeCbl, methylcobalamin], the “binding conformation (base-on/off)” value at His-MMACHC-wt [1] was “base-off”. At MMACHC-R161Q, the ΔTm max was found to be 9.3 ± 0.3 °C and the AC50 came to 8000 ± 1600 nM. Besides, on MMACHC-wt, the ΔTm max was determined as 12.7 ± 0.4 °C and the AC50 was 2100 ± 300 nM.
With `CC1=C2N=C(C=C3N=C(C(C)=C4[N-]C(C(CC(N)=O)C4(C)CCC(=O)NCC(C)OP(=O)([O-])OC4C(CO)OC(n5cnc6cc(C)c(C)cc65)C4O)C4(C)N=C1C(CCC(N)=O)C4(C)CC(N)=O)C(CCC(N)=O)C3(C)C)C(CCC(N)=O)C2(C)CC(N)=O.[CH2-]C1OC(n2cnc3c(N)ncnc32)C(O)C1O.[Co+3]` (centres unmarked) [AdoCbl, 5′-deoxyadenosylcobalamin], the Base-on/off entry is “Off” at His-MMACHC-R161Q; “base-off and Off” at His-MMACHC-wt [2]; “Off” on GST-MMACHC-wt. In addition, the α/β-Peak worked out at 461 nm on His-MMACHC-R161Q (nm), 460 nm at His-MMACHC-wt [2] (nm), 472 nm at GST-MMACHC-wt (nm) and 524 nm in data set [3]. Moreover, the “binding conformation (base-on/off)” value at His-MMACHC-wt [1] is reported as “base-off”. The ΔTm max on MMACHC-R161Q worked out at 13.2 ± 0.1 °C; on MMACHC-wt, 15.5 ± 0.1 °C. Also, the AC50 at MMACHC-R161Q came out at 1100 ± 100 nM; at MMACHC-wt it was 900 ± 100 nM. At MMACHC-R161Q (times/fold less effective than with MMACHC-wt), the “AC50 of R161Q relative to wild-type” value is “similar”.

B1: MMACHC-wt: recombinant wild-type MMACHC protein, His-tag removed by TEV (protein, UniProt Q9Y4U1 1-282, looked up)
Cyanocobalamin reductase / …: T1 sequence (Q9Y4U1 1-282 R161Q) with Q161R
Take B1: the “melting temperature (Tm)” value in [4] turned out to be 39.3 ± 1.0 °C. Also, the “unfolding by isothermal denaturation” value in data set [5] is reported as “did not unfold”.

B2: MMACHC-R161Q: recombinant MMACHC protein carrying the late-onset cblC mutation R161Q, His-tag removed (protein, UniProt Q9Y4U1 1-282, looked up, variant R161Q)
Cyanocobalamin reductase / …: T1 sequence (Q9Y4U1 1-282 R161Q)
As for B2, in [4], the “melting temperature (Tm)” value amounted to 37.1 ± 0.7 °C. The “unfolding by isothermal denaturation” value in data set [5] is recorded as “unfolding”.

(Values after paper PMC2923755, “Thermolability of mutant MMACHC protein in the vitamin B12-responsive cblC disorder” (Molecular Genetics and Metabolism, 2010).)
